Consider one compound from patent US20160271097A1, “FORMULATION OF OLOPATADINE” (NEPHRON PHARMACEUTICALS CORPORATION, priority 2013, published 2016).

The series is described as follows: Dissolution of olopatadine in the formulation (minimum PVA). The series is classed as physicochemical. As to conditions: Olopatadine about 2.0 mg/mL. The method, then:
Initial experiments were conducted to examine the possible concentration ranges for the organic modifiers which would initially solubilize Olopatadine during formulation and maintain the solution stability such that no crystallization of the drug product would occur. An experiment was carried out to determine the minimum amount of PVA needed to obtain the total dissolution of Olopatadine in the formulation. The minimum amount of PVA determined to be effective in solubilizing the drug substance during formulation and which prevented crystal growth in the drug product was 0.5%. Concentrations of such PVA below 0.5% are insufficient to permit dissolution of Olopatadine concentrations of about 2.0 mg/mL. Concentrations at or […] were susceptible to the drug substance starting to dissolve but then precipitating back out of solution during formulation.

Regarding `CN(C)CC/C=C1/c2ccccc2COc2ccc(CC(=O)O)cc21` [Olopatadine, {(11Z)-11-[3-(dimethylamino)propylidene]-6,11-dihydrodibenzo[b,e]oxepin-2-yl} acetic acid], the “Minimum amount of PVA effective in solubilizing the drug substance and preventing crystal growth” value turned out to be 0.5%.
